Columns and labels:
[1] = molecular target: T1, SirT6 (Homo sapiens, UniProt Q8N6T7); experiment: Determination of Kd of DNA for SirT6 activation by HPLC (Example 2); format: biochemical; conditions: 800 μM NAD, 480 μM H3, 10 μM SirT6, 2 hours 37° C.; fit Activation (fold)=1+m*x/(Kd+x)
T1 construct: The protein expression and purification were the same as the full length SIRT6 as described above; made in house; host or cells: E. coli BL21 Codon-plus RIPL
Experimental: FIG. 5A depicts a schematic of DNA structure. […] After 2 hours incubation at 37° C., either the deacetylated H3 was separated from H3 in the reaction containing the digested calf thymus DNA or AADPR was separated from other components in the reaction containing ssDNA, the plasmid, or dsDNA.
The plasmid pSTBlue was digested with BamHI and EcoRV and purified by […]™ III kit. […] The AADPR was separated by HPLC and the quantified data were fit into Michaelis-Menten equation to get Km of H3.
In the enzymatic reaction, the following DNA was used.
Calf thymus DNA (USB Corporation), which was digested with EcoRI and then purified using Spinprep Gel DNA Kit (Novagen);
ssDNA (5′ […] 3′ (SEQ ID NO: 9), Integrated DNA Technologies);
dsDNA (forward 5′ […] 3′ (SEQ ID NO: 10), reverse 5′ […] 3′ (SEQ ID NO: 11), Integrated DNA Technologies); and
pSTBlue plasmid, which was amplified using DH5α cells and purified by WIZARD™ PLUS (Midiprep) DNA purification system (Promega).
The precipitated proteins and other insolubles were removed by centrifugation at 15,000 rpm for 5 minutes. DNA in the supernatant was further removed by centrifugation at 15,000 rpm for 10 minutes using Microcon with 10 kDa cutoff (Millipore). In the experiment with the digested calf thymus DNA, the peptides were separated by a Waters Xterra RP-18 column using a gradient of 0-30% acetonitrile in 0.1% trifluoroacetic acid. […]

[2] = molecular target: T1, SirT6; experiment: Separation of SIRT6-DNA complex on Ni-NTA resin and Kd of DNA by gel electrophoresis (Example 6); format: binding
Experimental: The linearized DNA was incubated with SirT6 and Ni-NTA resin. The resin was washed as described in Materials and Methods, and the complex of SirT6-DNA was dissociated by 1 mM suramin. The parallel experiments were done in the presence of 500 uM H3 peptide. DNA bound to SirT6 was quantified and fit to Michaelis-Menten equation to get Kd of DNA binding to the enzyme. […] The single stranded DNA was incubated with SirT6 and Ni-NTA resin. The resin was washed and the complex of SirT6-ssDNA was dissociated by 1 mM suramin. The parallel experiments were done in the presence of 500 uM H3 peptide. […] The linearized DNA was incubated with SirT6 and Ni-NTA resin with or without H3 peptide. After washing, the resin was incubated with different concentration of surmain. The dissociated DNA was quantified by gel electrophoresis. […] After the resin was washed, DNA was dissociated with 1 mM suramin and quantified by gel electrophoresis. Lane 1, 150 ng circular pSTBlue (C-pSTBlue); Lane 2, 150 ng pSTBlue cut with BamHI (B-pSTBlue); Lane 3, 150 ng pSTBlue cut with EcoRV (E-pSTBlue); Lane 4, circular pSTBlue bound to SirT6; Lane 5, pSTBlue cut with BamHI bound to SirT6; Lane 6, pSTBlue cut with EcoRV bound to SirT6; Lane 7, circular pSTBlue bound to SirT6 in the presence of H3; Lane 8, pSTBlue cut with BamHI bound to SirT6 in the presence of H3; Lane 9, pSTBlue cut with EcoRV bound to SirT6 in the presence of H3; Lane 10, DNA ladder.
25% slurry of Ni-NTA resin was incubated with 5 μM SIRT6 and 500 μM H3 peptide for 1 hour at room temperature, in addition with different concentration of pSTBlue which was linearized with BamHI or different concentration of single stranded DNA, and/or 500 μM H3 peptide. After incubation, the resin was spun at 4,000 rpm for 1 minute, and was washed with 10 fold of resin volume with 10 mM imidazole, 100 mM phosphate buffer, pH 7.5, and then 10 fold volume of resin volume with 20 mM imidazole, 10 mM phosphate buffer, pH 7.5. The SIRT6-DNA complex was separated from the resin by adding 250 mM imidazole, 100 mM phosphate buffer, pH 7.5. […] The DNA bound to SIRT6 was then quantified by DNA gel electrophoresis: Linearized pSTBlue was quantified by 0.8% agarose gel electrophoresis using Tris-acetate acid buffer (1×TAE) run at room temperature; single stranded DNA was quantified by 6% acrylamide gel using Tris-boric acid buffer (1×TBE) run at room temperature. […]
In order to test if SIRT6 distinguished different DNA in the binding, pSTBlue was cut with different enzymes and purified by […]™ III kit (MP Biomedicals, LLC). […] DNA was then dissociated from SIRT6 by adding suramin to a final concentration of 1 mM and quantified by 0.8% agarose gel electrophoresis.

[3] = in the presence of 500 uM H3 peptide

T1 sequence (Q8N6T7 whole entry): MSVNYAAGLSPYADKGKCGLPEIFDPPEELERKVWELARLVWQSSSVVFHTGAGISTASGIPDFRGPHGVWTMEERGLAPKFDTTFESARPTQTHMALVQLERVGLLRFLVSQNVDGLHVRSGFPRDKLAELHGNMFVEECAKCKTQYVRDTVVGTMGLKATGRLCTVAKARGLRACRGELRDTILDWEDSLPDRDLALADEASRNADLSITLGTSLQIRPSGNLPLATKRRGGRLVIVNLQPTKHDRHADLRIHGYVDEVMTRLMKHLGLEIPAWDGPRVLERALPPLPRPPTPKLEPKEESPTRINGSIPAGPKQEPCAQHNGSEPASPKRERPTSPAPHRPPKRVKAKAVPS

ssDNA: ssDNA 5′ GGGGATCCATGAAGATGAGCTTTGCGTTGACT 3′ (SEQ ID NO: 9), Integrated DNA Technologies (DNA, backbone and methylation of C not given here)
Kd of DNA for activation of SirT6 [1]: 127.7 µg/mL | Kd of DNA binding to SirT6 ([2]; in the absence of H3): 195.5 µg/mL | Vmax of DNA bound to SirT6 ([2]; in the absence of H3): 151.7 ng/µL | Kd of DNA binding to SirT6 [2, 3]: 238.8 µg/mL | Vmax of DNA bound to SirT6 [2, 3]: 333.5 ng/µL

Reference: patent publication US9322049B2, “Activation and activators of SirT6” (CORNELL UNIVERSITY, priority 2009, dated 2016)
